pIC50: −log10 of the molar value. A value given as a limit tells only on which side of the number the result lay.

In assay [1] the target is T1, C-C chemokine receptor type 5 (Homo sapiens, UniProt P51681). Briefly: Percent inhibition of the [125I]-MIP-1 alpha binding towards C-C chemokine receptor type 5 stably expressed in Chinese hamster ovary (CHO) cells at a concentration of 1.7 uM. It counts as cell-based.
Target sequence in this assay (P51681 whole entry, looked up): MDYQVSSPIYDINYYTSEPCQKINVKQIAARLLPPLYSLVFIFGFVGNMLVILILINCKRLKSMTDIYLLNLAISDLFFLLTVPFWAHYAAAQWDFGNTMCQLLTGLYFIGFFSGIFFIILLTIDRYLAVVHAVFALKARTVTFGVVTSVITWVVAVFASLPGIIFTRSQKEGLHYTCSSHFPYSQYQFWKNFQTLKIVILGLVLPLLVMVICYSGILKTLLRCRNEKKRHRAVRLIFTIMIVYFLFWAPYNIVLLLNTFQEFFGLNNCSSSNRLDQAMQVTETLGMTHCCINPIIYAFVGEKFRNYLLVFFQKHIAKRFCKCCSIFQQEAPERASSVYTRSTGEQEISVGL
Assay [2] addresses T1, C-C chemokine receptor type 5. Kind of assay: Percent inhibition of the [125I]-MIP-1 alpha binding towards C-C chemokine receptor type 5 stably expressed in Chinese hamster ovary (CHO) cells at a concentration of 1 uM. It is filed as cell-based.
Target sequence in this assay (P51681 whole entry, looked up): as above
Assay [3] deals with T2, C-C chemokine receptor type 3 (Homo sapiens, UniProt P51677).
T2 sequence (P51677 whole entry): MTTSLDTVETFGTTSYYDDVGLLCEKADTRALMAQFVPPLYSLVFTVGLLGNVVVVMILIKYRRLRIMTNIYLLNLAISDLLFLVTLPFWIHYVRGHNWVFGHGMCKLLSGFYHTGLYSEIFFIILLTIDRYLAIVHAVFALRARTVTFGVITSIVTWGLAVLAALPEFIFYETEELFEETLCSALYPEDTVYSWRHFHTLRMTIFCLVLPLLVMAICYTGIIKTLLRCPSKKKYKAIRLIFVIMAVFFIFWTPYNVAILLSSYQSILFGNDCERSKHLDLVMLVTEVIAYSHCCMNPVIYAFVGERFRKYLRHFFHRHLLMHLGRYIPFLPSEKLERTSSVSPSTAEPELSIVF
Briefly: Inhibitory activity against C-C chemokine receptor type 3.

The target of assay [4] is T3, C-C chemokine receptor type 1 (Homo sapiens, UniProt P32246).
T3 sequence (P32246 whole entry): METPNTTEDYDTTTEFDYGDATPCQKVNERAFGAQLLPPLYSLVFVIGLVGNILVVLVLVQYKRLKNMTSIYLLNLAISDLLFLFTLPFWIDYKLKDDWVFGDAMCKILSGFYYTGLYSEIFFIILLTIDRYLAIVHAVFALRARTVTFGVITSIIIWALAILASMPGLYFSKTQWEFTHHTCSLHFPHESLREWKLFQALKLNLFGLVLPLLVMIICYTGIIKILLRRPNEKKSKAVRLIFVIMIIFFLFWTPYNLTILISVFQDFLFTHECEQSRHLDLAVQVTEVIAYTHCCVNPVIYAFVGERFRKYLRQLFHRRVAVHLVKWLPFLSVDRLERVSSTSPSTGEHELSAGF
Briefly: Inhibitory activity against C-C chemokine receptor type 1.

For assay [5], the target named is C-X-C chemokine receptor type 4 (Homo sapiens, UniProt P61073). Briefly: Inhibitory activity against C-X-C chemokine receptor type 4.
Sequence of C-X-C chemokine receptor type 4 (P61073 whole entry): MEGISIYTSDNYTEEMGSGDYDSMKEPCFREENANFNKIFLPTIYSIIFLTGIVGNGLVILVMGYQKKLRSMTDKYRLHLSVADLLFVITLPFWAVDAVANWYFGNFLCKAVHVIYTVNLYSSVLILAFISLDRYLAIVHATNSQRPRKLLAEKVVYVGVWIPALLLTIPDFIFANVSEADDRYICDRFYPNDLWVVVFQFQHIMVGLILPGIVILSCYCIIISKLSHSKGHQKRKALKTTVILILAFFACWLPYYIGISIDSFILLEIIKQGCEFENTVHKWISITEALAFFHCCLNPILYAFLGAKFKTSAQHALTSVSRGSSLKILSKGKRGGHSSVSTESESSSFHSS
Assay [6] has as its target T1, C-C chemokine receptor type 5. Briefly: Binding affinity against C-C chemokine receptor type 5 stably expressed in Chinese hamster ovary (CHO) cells using [125I]-MIP-1 alpha as the radioligand. It is filed as cell-based.
Target sequence in this assay (P51681 whole entry): as the sequence (P51681 whole entry, looked up) above
In assay [7] the target is T4, C-C chemokine receptor type 4 (Homo sapiens, UniProt P51679).
T4 sequence (P51679 whole entry): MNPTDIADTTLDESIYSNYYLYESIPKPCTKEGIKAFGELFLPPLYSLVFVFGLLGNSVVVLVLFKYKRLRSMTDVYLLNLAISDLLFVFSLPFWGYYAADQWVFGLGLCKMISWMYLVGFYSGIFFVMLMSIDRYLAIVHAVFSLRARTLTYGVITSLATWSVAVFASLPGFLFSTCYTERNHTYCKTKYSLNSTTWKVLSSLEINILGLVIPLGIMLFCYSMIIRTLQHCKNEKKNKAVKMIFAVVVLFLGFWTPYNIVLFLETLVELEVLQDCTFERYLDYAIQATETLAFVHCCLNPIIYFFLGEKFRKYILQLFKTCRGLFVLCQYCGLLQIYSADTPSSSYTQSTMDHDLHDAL
Kind of assay: Inhibitory activity against C-C chemokine receptor type 4.

The test system of assay [8] is Human immunodeficiency virus 1. Briefly: Antiviral activity against HIV-1 viral replication in isolated peripheral blood mononuclear cells (PBMCs). It counts as functional.
Assay [9] has as its target C-C chemokine receptor type 2 (Homo sapiens, UniProt P41597). Kind of assay: Inhibitory activity against C-C chemokine receptor type 2.
The target in assay [10] is T1, C-C chemokine receptor type 5. Kind of assay: Percent inhibition of the [125I]-MIP-1 alpha binding towards C-C chemokine receptor type 5 stably expressed in Chinese hamster ovary (CHO) cells at a concentration of 10 uM. It is filed as cell-based.
Target sequence in this assay (P51681 whole entry, looked up): as the sequence (P51681 whole entry, looked up) above

Sequence of C-C chemokine receptor type 2 (P41597 whole entry): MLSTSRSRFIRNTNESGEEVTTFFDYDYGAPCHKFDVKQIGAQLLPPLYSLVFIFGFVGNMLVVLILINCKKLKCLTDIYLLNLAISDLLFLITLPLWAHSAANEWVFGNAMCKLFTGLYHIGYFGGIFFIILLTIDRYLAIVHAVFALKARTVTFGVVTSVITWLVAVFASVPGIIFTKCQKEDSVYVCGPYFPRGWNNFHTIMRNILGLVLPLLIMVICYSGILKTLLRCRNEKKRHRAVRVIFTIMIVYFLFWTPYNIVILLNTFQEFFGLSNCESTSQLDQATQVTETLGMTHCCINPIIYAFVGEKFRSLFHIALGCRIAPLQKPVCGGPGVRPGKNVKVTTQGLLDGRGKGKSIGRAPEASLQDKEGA

What is called inhibition is the relative decrease from the control value, in per cent. Consider `O=C1N[C@H](Cc2ccccc2)C(=O)N1CC(CCN1CCC2(CC1)C[S+]([O-])c1ccccc12)c1cccc(Cl)c1` (stereo partly drawn), for which, in assay [1], the inhibition was found to be 39%.

In turn, `O=C1CC2(CCN(CCC(CN3C(=O)N[C@@H](c4ccccc4)C3=O)c3cccc(Cl)c3)CC2)c2ccccc21` (stereo partly drawn) returned an inhibition in [2] of 52%.

One may read the pIC50 as −log10 of the IC50, conventionally taken in molar units. A word on the IC95: it is the concentration at which the effect reaches the 95% level. Low readings indicate an effect from little substance, high ones a need for much substance. As to `C=CCN(C(=O)OCc1ccccc1)C1CCN(CCC(C)(CN2C(=O)N[C@H](Cc3c[nH]c4ccccc34)C2=O)c2ccccc2)CC1` (stereo partly drawn), the pIC50 was under 6.00 in assay [3]; under 6.00 in [4]; under 6.00 in assay [5]; 8.30 in assay [6]; under 6.00 in assay [7]; under 6.00 in assay [9]. In assay [8], this compound gave an IC95 of over 3000 nM.

In the case of `CCN(C(=O)OCc1ccccc1)C1CCN(CCC(C)(CN2C(=O)N[C@H](Cc3c[nH]c4ccccc34)C2=O)c2cccc(Cl)c2)CC1` (stereo partly drawn), the pIC50 in assay [6] is 7.11.

Consider `O=C1N[C@H](Cc2c[nH]c3ccccc23)C(=O)N1CC(CCN1CCC(c2ccccc2)CC1)c1cccc(Cl)c1` (single isomer, unassigned), for which the pIC50 in assay [6] was 7.10.

In [2], `O=C1N[C@H](Cc2csc3ccccc23)C(=O)N1CC(CCN1CCC(c2ccccc2)CC1)c1cccc(Cl)c1` (stereo partly drawn) had an inhibition of 67%.

Regarding `Cn1cc(C[C@H]2NC(=O)N(CC(CCN3CCC(c4ccccc4)CC3)c3cccc(Cl)c3)C2=O)c2ccccc21` (stereo partly drawn), the inhibition in assay [2] was 43%.

Compound `O=C1N[C@H](Cc2c[nH]c3ccccc23)C(=O)N1CC(CCN1CCC(c2ccccc2)CC1)c1ccccc1` (stereo in doubt; 24) registered an inhibition in assay [2] of 71%.

On to `CC(CCN1CCC(c2ccccc2)CC1)(CN1C(=O)N[C@H](Cc2c[nH]c3ccccc23)C1=O)c1ccccc1` (stereo partly drawn), for which the inhibition in assay [2] stood at 80%.

Turning to `O=C1CC2(CCN(CCC(CN3C(=O)N[C@H](Cc4ccccc4)C3=O)c3cccc(Cl)c3)CC2)c2ccccc21` (stereo partly drawn), the pIC50 in [6] is 6.70.

On to `C=CCN(C(=O)OCc1ccccc1)C1CCN(CCC(CN2C(=O)N[C@H](Cc3c[nH]c4ccccc34)C2=O)c2ccccc2)CC1` (stereo partly drawn), for which the negative-log IC50 (pIC50) is under 6.00 in assay [3]; under 6.00 in assay [4]; under 6.00 in assay [5]; 8.15 in assay [6]; under 6.00 in assay [7]; under 6.00 in assay [9]. Besides, the IC95 in assay [8] is over 3000 nM.

Consider `CCN(C(=O)OCc1ccccc1)C1CCN(CCC(CN2C(=O)N[C@H](Cc3c[nH]c4ccccc34)C2=O)c2cccc(Cl)c2)CC1` (stereo partly drawn), for which the pIC50 is under 6.00 in [3]; under 6.00 in assay [4]; under 6.00 in [5]; 8.70 in [6]; under 6.00 in [7]; under 6.00 in [9]. In addition, it took 12500 nM to reach the 95% level in [8] (IC95).

In turn, `O=C1N[C@H](Cc2c[nH]c3ccccc23)C(=O)N1CC(CCN1CCC(c2ccccc2)CC1)c1cccc(Cl)c1` (stereo in doubt) gave a pIC50 in assay [6] of 7.60.

In assay [1], `O=C1N[C@H](Cc2ccccc2)C(=O)N1CC(CCN1CCC2(CC1)CSc1ccccc12)c1cccc(Cl)c1` (stereo partly drawn) gave an inhibition of 24%.

As for `CC(CCN1CCC(c2ccccc2)CC1)(CN1C(=O)N[C@H](Cc2c[nH]c3ccccc23)C1=O)c1cccc(Cl)c1` (stereo partly drawn), in assay [6], the pIC50 is 7.00.

Take `C=CCN(C(=O)OCc1ccccc1)C1CCN(CCC(C)(CN2C(=O)N[C@H](Cc3c[nH]c4ccccc34)C2=O)c2cccc(Cl)c2)CC1` (stereo partly drawn): the pIC50 in assay [3] was under 6.00; in assay [4] it was under 6.00; in assay [5], under 6.00; in assay [6], 7.49; in [7] it was under 6.00; in [9] it was under 6.00.

In assay [10], `C[C@H]1NC(=O)N(CC(CCN2CCC(c3ccccc3)CC2)c2cccc(Cl)c2)C1=O` (stereo partly drawn) gave an inhibition of 43%.

For the compound `CCN(C(=O)OCc1ccccc1)C1CCN(CCC(CN2C(=O)N[C@H](Cc3c[nH]c4ccccc34)C2=O)c2ccccc2)CC1` (stereo partly drawn), the pIC50 in assay [3] was under 6.00; in assay [4] it was under 6.00; in assay [5] it was under 6.00; in assay [6], 7.89; in [7], under 6.00; in assay [9], under 6.00. The same compound had an IC95 in assay [8] of 25000 nM.

Consider `CCN(C(=O)OCc1ccccc1)C1CCN(CCC(C)(CN2C(=O)N[C@H](Cc3c[nH]c4ccccc34)C2=O)c2ccccc2)CC1` (stereo partly drawn), for which the pIC50 in assay [3] was under 6.00; in [4], under 6.00; in assay [5], under 6.00; in [6], 8.40; in assay [7], under 6.00; in assay [9] it was under 6.00. In assay [8], this compound gave an IC95 of 12500 nM.

Turning to `O=C1N[C@H](Cc2ccccc2)C(=O)N1CC(CCN1CCC(c2ccccc2)CC1)c1cccc(Cl)c1` (stereo partly drawn), the pIC50 in [6] is 6.60.

Compound `CS(=O)(=O)N1CC2(CCN(CCC(CN3C(=O)N[C@H](Cc4ccccc4)C3=O)c3cccc(Cl)c3)CC2)c2ccccc21` (stereo partly drawn) returned an inhibition in assay [2] of 55%.

On to `CN1C(=O)N(CC(CCN2CCC(c3ccccc3)CC2)c2cccc(Cl)c2)C(=O)[C@H]1Cc1ccccc1` (stereo partly drawn), for which the inhibition in assay [2] amounted to 52%.

For `O=C1CC2(CCN(CCC(CN3C(=O)N[C@H](c4ccccc4)C3=O)c3cccc(Cl)c3)CC2)c2ccccc21` (stereo partly drawn), in assay [6], the pIC50 was 6.22.

As to `C=CCN(C(=O)OCc1ccccc1)C1CCN(CCC(CN2C(=O)N[C@H](Cc3c[nH]c4ccccc34)C2=O)c2cccc(Cl)c2)CC1` (stereo partly drawn), the pIC50 in assay [3] is under 6.00; in assay [4], under 6.00; in assay [5], under 6.00; in assay [6], 8.52; in assay [7], under 6.00; in assay [9], under 6.00. For the same compound, the 95% effect level in [8] (IC95) was put at 12500 nM.

The compound `O=C1N[C@H](Cc2c[nH]c3ccccc23)C(=O)N1CC(CCN1CCC(c2ccccc2)CC1)c1ccccc1` (stereo in doubt; 22) had an inhibition in assay [2] of 71%.

In turn, `O=C1N[C@H](Cc2c[nH]cn2)C(=O)N1CC(CCN1CCC(c2ccccc2)CC1)c1ccccc1` (stereo partly drawn) gave an inhibition in assay [2] of 25%.

`O=C1[C@@H](Cc2ccccc2)N(Cc2ccccc2)C(=O)N1CC(CCN1CCC(c2ccccc2)CC1)c1cccc(Cl)c1` (stereo partly drawn) registered an inhibition in assay [2] of 40%.

The values above are taken from ChEMBL document CHEMBL1133866, “Discovery of human CCR5 antagonists containing hydantoins for the treatment of HIV-1 infection” (Bioorg Med Chem Lett, 2001).
